“And” between values parts separate entries of the source, which are not always exact repeats. Equal values may be shown once.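 Dose response: 5 concentrations. Exposure: 48 h. Format: 96-well plates. Endpoint: linear interpolation; highest concentration if not reached. Here, GI50 denotes the concentration required for 50% inhibition of growth. TGI marks complete inhibition of growth.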
system: MDA-MB-468 breast; experiment: NCI-60 cell line screen, 48 h

SMILES	GI50	TGI [µM]
COc1cccc(-n2nc(C)c3c(N/N=C(\C)c4ccncc4)ncnc32)c1	2.67 µM	> 25
CNC(=O)c1cccc2cc(Oc3ccnc4cc(OCC5(N)CC5)c(OC)cc34)ccc12	7.41 µM	22.6
O=C(Nc1ccncc1)C(=O)c1cn(Cc2ccc(Cl)cc2)c2ccccc12	0.0271 µM	0.346
CCC1CN2C(=N1)c1ccccc1-c1cc(Cl)ccc12 (configuration not stated)	2.16 µM	6.85
CN(C)C(=S)/N=c1\ssc(=S)n1Cc1cccnc1	3.07 µM	> 100
COc1ccc(-c2nc(-c3ccccc3)c(-c3ccccc3)[nH]2)cc1OC1CCCC1	> 100 µM	> 100
Cc1ccc(-c2nc(C#N)c(S(=O)(=O)n3nc(C)cc3N)o2)cc1	2.72 µM	7.96
NC(=O)c1ccccc1Nc1ccc2nnc(-c3ccncc3)n2n1	1.98 µM	7.32
CCOC(=O)c1cc2c(n1Cc1cccc(OC)c1)-c1oncc1CCC2	0.732 µM	> 82.8
CCCc1cc(=O)[nH]c(-n2nc(C)cc2C)n1	4.77 µM	> 100
COC(=O)[C@@]12OC[C@]34[C@H]([C@@H](O)[C@@H]1O)[C@@]1(C)[C@H](O)C(=O)C=C(C)[C@@H]1C[C@H]3OC(=O)C(OC(C)=O)[C@@H]24 (some centres not stated)	0.0208 µM	0.0624
CN(C)C(=S)/N=c1\ssc(=S)n1Cc1ccccc1	0.5 µM	35.2
CC1OC(n2c3ccccc3c3c4c(c5c6ccccc6[nH]c5c32)C(=O)N(CCN[C@@H]2CCC[C@H]2N)C4=O)CC(O)C1O (some centres not stated)	1.15 µM	3
O=C1C(N2CC2)=C(N2CC2)C(=O)C(N2CC2)=C1N1CC1	0.395 µM	2.44
CC(=O)OC[C@]12CC[C@@H](C(=O)CBr)[C@@H]1[C@H]1CC[C@@H]3[C@@]4(C)CCCNC(C)(C)[C@@H]4CC[C@@]3(C)[C@]1(C)CC2	2.12 µM	5.66
COc1cccc(-c2nn(-c3ccccc3)cc2-c2ccnc(NCCCNC(=O)Nc3ccc(Cl)c(Cl)c3)c2)c1	1.92 µM	4.34
CN[C@H](C#Cc1c(F)ccc2c1/C(=C/c1[nH]ccc1OC)C(=O)N2)CO	0.476 µM	1.45
O=S(=O)(Nc1ccc(Br)c(Cl)c1)c1ccc(-c2cnc(C3CC3)o2)cc1	0.263 µM	2.86
Cc1cc(Cl)cc(NS(=O)(=O)c2ccc(-c3cnc(C4CC4)o3)cc2)c1	0.12 µM	4.44
C=CC1CN2CCC1CC2C(O)c1ccnc2ccc(OC)cc12 (configuration not stated)	> 100 µM	> 100
O=C1c2cccc(NCCN=Cc3cc([N+](=O)[O-])ccc3O)c2C(=O)c2c(NCCN=Cc3cc([N+](=O)[O-])ccc3O)cccc21	1.86 µM	20.1
C[C@]12CCc3sc(NCCc4ccccc4)nc3C1=CC[C@@H]1[C@@H]2CC[C@]2(C)C(=O)CC[C@@H]12	2.99 µM	10.3
O=C(Nc1cccc(-n2cc(-c3ccncc3)c(-c3ccc(Cl)c(O)c3)n2)c1)c1ccc(N2CCOCC2)c(C(F)(F)F)c1	7.04 µM	26.6
C=C1/C(=C\C=C2/CCC[C@]3(C)[C@@H]([C@H](C)CCCC(C)(C)O)CC[C@@H]23)C[C@@H](OC(=O)CBr)C[C@@H]1O	2.56 µM	7.74
CCCCC[C@H]1C/C=C2/C(=O)C=C[C@@H]2C/C=C\CCCC(=O)O[C@@H](CCCCC)C/C=C2/C(=O)C=C[C@@H]2C/C=C\CCCC(=O)O1	0.371 µM	1.01
Cc1cc(NCCN(C(C)C)C(C)C)nc(/N=C(\N)Nc2ccc(Cl)c(C(F)(F)F)c2)n1	0.229 µM	0.595
COc1cccc2c1ccc1nc3cccc(C(=O)N[C@H](C)CN(C)C)c3nc12	0.12 µM	0.485

SMILES	GI50	TGI [µM]
NC(=O)c1ccc(I)c(N=O)c1	21.3 µM	61.3
COc1cc(Nc2c(C#N)cnc3cc(OCCCN4CCN(C)CC4)c(OC)cc23)c(Cl)cc1Cl	1.63 µM	4.14
COc1ccc2c(c1)nnn1c3ncccc3c(N=O)c21	0.0323 µM and 0.126 µM	–
CN(C)c1ccc(-c2cc(-c3c[nH]c4ccccc34)nc(N)c2C#N)cc1	1.97 µM	9.22
COc1cccc(C2=C(c3c(C)n(C)c4ccccc34)C(=O)NC2=O)c1	7.67 µM	> 25
CCn1cnc(C[C@H](NC(=O)[C@@H](NC(=O)Nc2cc(C(F)(F)F)cc(C(F)(F)F)c2)C(C)C)C(=O)OC)c1	1.74 µM	3.57
CCn1cc(C(=O)N/N=C/c2ccccc2)c(=O)c2cc(F)c(N3CCNC(C)C3)c(F)c21 (configuration not stated)	1.62 µM	3.12
CC1(N)CCN(c2cccnc2NC(=O)c2nc(-c3ncccc3C(F)(F)F)cnc2N)CC1	14.1 µM	52.8
CCCNC(=O)CCC(C)C1CCC2C3C(C[C@H](OC(C)=O)[C@]12C)[C@@]1(C)CCC2(C[C@H]1C[C@H]3OC(C)=O)OOC1(CC[C@]3(C)C4C[C@H](OC(C)=O)[C@]5(C)C(C(C)CCC(=O)NCCC)CCC5C4[C@H](OC(C)=O)C[C@@H]3C1)OO2 (some centres not stated)	24.9 µM	> 100
COc1ccc(C2CC(C)(O)Oc3cc4c(cc32)OCO4)cc1 (configuration not stated)	18.9 µM	55.7
CCC(C)[C@H]1O[C@]2(C=C[C@@H]1C)C[C@@H]1C[C@@H](C/C=C(\C)[C@@H](OC3C[C@H](OC)C(O[C@H]4C[C@H](OC)[C@@H](O)[C@H](C)O4)[C@H](C)O3)[C@@H](C)/C=C/C=C3\CO[C@@H]4[C@H](O)C(C)=C[C@@H](C(=O)O1)[C@]34O)O2 (some centres not stated)	1.03 µM	4.14
c1csc(-c2cn3nc(-c4c[nH]c5ccccc45)sc3n2)c1	2.92 µM	27.8
O=c1ccn(C2CC(O)C(CO)O2)c(=O)[nH]1 (configuration not stated)	> 5000 µM	> 5000
CNCCCn1c2c(c3ccc([N+](=O)[O-])cc3c1=O)C(=O)c1cc(OC)cnc1-2	0.0335 µM	0.189
COc1ccc(-c2cc(-c3cccc4ccccc34)n3c(n2)nc2ccccc23)cc1OC	2.7 µM	> 100
CN1CCN(CCOc2ccc(-c3cnc4c(-c5ccc(C(F)(F)F)cc5)cnn4c3)cc2)CC1	1.36 µM	2.95
O=C1NC(=C(Cl)Cl)/C(=N/S(=O)(=O)N2CCCCC2CC2(C(F)(F)F)N=N2)N1 (configuration not stated)	1.16 µM	3.91
Cc1cc(O)c(C2=NN(c3ccc(S(N)(=O)=O)cc3)C(c3ccccc3Cl)C2)cc1Cl (configuration not stated)	2.22 µM	4.74
COc1ccc(C(=O)/C=C/c2cccc([N+](=O)[O-])c2)c(OC)c1	1.09 µM	3
Nc1nc(N)c2nc(CNc3ccc(C(=O)NC(CC(=O)O)C(=O)O)cc3)cnc2n1 (configuration not stated)	1.37 µM	> 100
CC(=O)C(=Cc1ccc(C=C(C(C)=O)C(C)=O)cc1)C(C)=O	1.51 µM	3.14
O=C(Nc1cccc(-n2cc(-c3ccncc3)c(-c3cc(O)cc(Cl)c3)n2)c1)Nc1ccc(Cl)c(C(F)(F)F)c1	2.08 µM	8.42
COC1=CC(c2ccc[nH]2)=N/C1=C\c1[nH]c(C)c(C(=O)CCCCC(=O)NC(C)(C)C)c1C	1.52 µM	3.58
COc1ccc(-c2nc(/C=N/Nc3cc(C)nc4ccc(Cl)cc34)c(C)o2)cc1	1.93 µM	3.71
CCN(Cc1ccc(F)cc1)c1ccc(CO)c(F)c1	0.167 µM	0.461
COc1cc2c(cc1O)CC[C@@H]1[C@@H]2CC[C@]2(C)[C@@H](OCCN(C)C)CC[C@@H]12	0.154 µM	0.531
Cc1cc(C(=C2C=CC(=Nc3ccccc3)C=C2)c2ccc(Nc3ccccc3)cc2)ccc1N	0.332 µM	1.29

Source: PubChem BioAssay (NCI)
